From patent US6914077B2, “Mite repellant and/or miticide composition” (Kao Corporation, priority 2001, dated 2005)
Like-named read-outs stand apart in the source and are kept apart here.

Columns and labels:
Assay type in all cases: in vivo
[1] = tested on: Dermatophagoides farinae Hughes; experiment: Mite repellent effect test (impregnated black paper); details: mites counted after 15 minutes, vs acetone control
Protocol: The repellent effects of compounds shown in Table 1 were evaluated in accordance with the following method. 1. Mite (or mites) under test: Dermatophagoides farinae Hughes. 2. Testing method: Each test compound was diluted with acetone, black paper 2.5 cm square was impregnated with the diluted test compound in such a manner that the test compound is impregnated in a proportion of 100 μg or 1,000 μg per cm^2 and the black paper was air-dried under room temperature for 2 hours. Black paper treated with acetone alone was also provided as a control group. Mites grown at high density were transferred together with a medium to a glass batt (15×20 cm), and a sheet of gauze cut out in the same size was placed thereon. This medium was placed in a plastic closed container controlled at relative humidity of at least 85% with saturated brine and incubated at 25° C. Three sheets of the black paper treated with the test compound were arranged side by side at intervals of at least 5 mm on the gauze to count the number of the mites climbed up the front and back surfaces of the black paper after 15 minutes. This process was repeated 3 times to find an average value, and it was compared with the control group to calculate out a repelling rate in accordance with the following equation. Repelling rate={(A−B)/A}×100(%) wherein A is the number of mites climbed up in the control group, and B is the number of mites climbed up in the treated group.

[2] = tested on: Dermatophagoides farinae Hughes; experiment: Miticidal effect test (impregnated folded filter paper); details: 1,000 μg per cm^2 on filter paper, 25° C.
Protocol: The miticidal effects of compounds shown in Table 2 were evaluated in accordance with the following method. • 1. Mite or Mites under test: Dermatophagoides farinae Hughes. • 2. Testing method:
Each test compound was diluted with acetone, filter paper 5×10 cm in size was impregnated with the diluted test compound in such a manner that the test compound is impregnated in a proportion of 1,000 μg per cm^2, and the filter paper was air-dried at room temperature for 2 hours. Filter paper treated with acetone alone was also provided as a control group. Each filter paper was folded in two, and 20 to 40 mites were freed therein to close the open portion with aclip in such a manner that the mites cannot escape. After the filter paper was incubated for 24 hours or 48 hours in an environment of 25° C. and relative humidity of at least 80%, the numbers of the living or dead mites are calculated through a stereoscopic microscope. This process was repeated 3 times to find an average lethality, and it was compared with the untreated group to calculate out a compensated lethality in accordance with the following equation. Compensated lethality={(Y−X)/(100−X)}×100 (%) wherein X is an average lethality in the control group, and Y is an average lethality in the treated group.

[3] = tested on: Dermatophagoides farinae Hughes; experiment: Mite growth inhibition test in treated medium; details: for inhibition at 0.045 % strength: 0.045 % by weight in medium; for inhibition at 0.12 % strength: 0.12 % by weight in medium; for inhibition at 0.23 % strength: 0.23 % by weight in medium; for inhibition at 0.34 % strength: 0.34 % by weight in medium
Protocol: The inhibitory effect of methyl dihydrojasmonate on the growth of mites was evaluated in accordance with the following method. • 1. Mite (or Mites) under test: Dermatophagoides farinae Hughes. • 2. Testing method:
After a predetermined amount of methyl dihydrojasmonate diluted with ethanol was added to mite-free sterilized medium (10 g; MF powder feed; Oriental Yeast Co., Ltd.), and both were mixed, the mixture was air-dried at room temperature for at least 3 hours to provide a treated group. A medium mixed with ethanol was provided as a control group. Mites sufficiently grown with the same medium as described above in advance were fully mixed with the medium, and this mixture (1 g) was mixed into the test medium containing methyl dihydrojasmonate and control medium, respectively. After fully stirred, the mites were raised at 25° C. for 22 days. A sample (0.1 g) was taken out of each medium to count the number of active mites through a microscope, thereby calculating out a mite growth-inhibiting rate. Incidentally, the test was repeated 3 times to conduct the evaluation in terms of the average value thereof. Mite growth-inhibiting rate={(T−S)/T}×100 (%) wherein T is the number of viable mites in the control group, and S in the number of viable mites in the treated group.

[4] = concentration of compound 100 μg/cm^2 on black paper
[5] = concentration of compound 1,000 μg/cm^2 on black paper
[6] = 8th day, read-out: Growth-inhibiting rate on the 8th day
[7] = 22nd day, read-out: Growth-inhibiting rate on the 22nd day

C=C(C)C1CC=C(C)C(=O)C1 (stereo not drawn) [Carvone, reference compound]
Repelling rate [1, 4]: 10% | Repelling rate [1, 5]: 29%

CC(C)=CCCC(C)=CCCC(C)=CCO [Farnesol]
Repelling rate [1, 4]: 94% | Repelling rate [1, 5]: 96% | Compensated lethality ([2]; incubation time 24 hr): 63% | Compensated lethality ([2]; incubation time 48 hr): 77%

C/C(=C\CO)CCC[C@H](C)CCC[C@H](C)CCCC(C)C [Phytol]
Repelling rate [1, 4]: 52% | Repelling rate [1, 5]: 72%

CC/C=C\CC1C(=O)CCC1CC(=O)OC (stereo not drawn) [Methyl jasmonate]
Repelling rate [1, 4]: 93% | Repelling rate [1, 5]: 97%

C=CC(C)(O)CCC=C(C)C (stereo not drawn) [Linalool, reference compound]
Repelling rate [1, 4]: 47% | Repelling rate [1, 5]: 57%

CCCCCC1C(=O)CCC1CC(=O)OC (stereo not drawn) [Methyl dihydrojasmonate]
Repelling rate [1, 4]: 90% | Repelling rate [1, 5]: 94% | inhibition at 0.045 % strength [3, 6]: 75% | inhibition at 0.045 % strength [3, 7]: 54% | inhibition at 0.12 % strength [3, 6]: 86% | inhibition at 0.12 % strength [3, 7]: 61% | inhibition at 0.23 % strength [3, 6]: 93% | inhibition at 0.23 % strength [3, 7]: 69% | inhibition at 0.34 % strength [3, 6]: 92% | inhibition at 0.34 % strength [3, 7]: 80% | Compensated lethality ([2]; incubation time 24 hr): 100% | Compensated lethality ([2]; incubation time 48 hr): 100%

C=CC(C)(O)CCC=C(C)CCC=C(C)C (stereo not drawn) [Nerolidol]
Repelling rate [1, 4]: 80% | Repelling rate [1, 5]: 79%

CCCCCC1=C(C)CCC1=O [Dihydrojasmone]
Repelling rate [1, 4]: 80% | Repelling rate [1, 5]: 83%

CC/C=C\CC1=C(C)CCC1=O [cis-Jasmone]
Repelling rate [1, 4]: 72% | Repelling rate [1, 5]: 85%
